Biological target: human PAD4 (Homo sapiens (Human), UniProt Q9UM07)
Test: In Vitro PAD4 BAEE Biochemical Assay
Details: recombinant PAD4 5 nM, 2 mM calcium chloride, 3 mM BAEE substrate; geometric mean of multiple experiments
Method in brief: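 Deimination of BAEE substrate (3 mM) measured as ammonia via o-phthalaldehyde–DTT isoindole fluorescence, 405/535 nm. Tag-free bacterially expressed human PAD4 at 5 nM with 2 mM calcium chloride, pH 7.6 MOPS buffer, 30 min compound preincubation then 2 h reaction, both at 25 °C.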

human PAD4, sequence (Q9UM07 2-663): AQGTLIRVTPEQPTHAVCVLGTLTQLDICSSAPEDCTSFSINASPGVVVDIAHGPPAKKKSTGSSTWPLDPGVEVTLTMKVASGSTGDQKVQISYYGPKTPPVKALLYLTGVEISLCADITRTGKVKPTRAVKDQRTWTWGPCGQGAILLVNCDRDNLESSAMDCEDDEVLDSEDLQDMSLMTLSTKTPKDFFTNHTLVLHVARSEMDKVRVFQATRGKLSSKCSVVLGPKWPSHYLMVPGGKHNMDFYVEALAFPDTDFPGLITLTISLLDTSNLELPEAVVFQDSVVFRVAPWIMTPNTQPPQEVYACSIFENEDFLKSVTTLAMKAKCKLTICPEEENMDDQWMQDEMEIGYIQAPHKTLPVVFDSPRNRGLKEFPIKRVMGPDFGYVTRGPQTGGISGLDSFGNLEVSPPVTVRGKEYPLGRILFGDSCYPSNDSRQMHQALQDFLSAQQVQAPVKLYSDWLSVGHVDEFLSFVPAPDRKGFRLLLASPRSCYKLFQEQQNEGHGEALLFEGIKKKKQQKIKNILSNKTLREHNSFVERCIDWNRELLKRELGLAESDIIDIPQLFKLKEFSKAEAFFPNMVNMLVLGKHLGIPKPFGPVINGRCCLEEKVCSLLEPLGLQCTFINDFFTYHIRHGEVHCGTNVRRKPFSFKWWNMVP

Row | IC50 [nM] | SMILES
1 | 84.1 | C[C@@H](NC(=O)C1(C#N)CC1)c1ccc2cc(-c3nc4cc(C(=O)N5C[C@H](N)[C@@H]6CC[C@H]5C6)cc(F)c4n3C3CC3)n(CC3CC3)c2n1 [Example 303, N-((R)-1-(2-(5-((1S,4R,5R)-4-amino-2-azabicyclo[3.2.1]octane-2-carbonyl)-1-cyclopropyl-7-fluoro-1H-benzo[d]imidazol-2-yl)-1-(cyclopropylmethyl)-1H-pyrrolo[2,3-b]pyridin-6-yl)ethyl)-1-cyanocyclopropane-1-carboxamide]
2 | 48.6 | C[C@@H](NC(=O)C1CCOCC1)c1ccc2cc(-c3nc4cc(C(=O)N5C[C@H](N)[C@@H]6CC[C@H]5C6)cc(F)c4n3C3CC3)n(CC3CC3)c2n1 [Example 304, N-((R)-1-(2-(5-((1S,4R,5R)-4-amino-2-azabicyclo[3.2.1]octane-2-carbonyl)-1-cyclopropyl-7-fluoro-1H-benzo[d]imidazol-2-yl)-1-(cyclopropylmethyl)-1H-pyrrolo[2,3-b]pyridin-6-yl)ethyl)tetrahydro-2H-pyran-4-carboxamide]
3 | 72.7 | COc1cc(C(=O)N2C[C@H](N)[C@@H]3CC[C@H]2C3)cc2nc(-c3cc4ccc([C@@H](C)NC(=O)c5cccnc5C(F)F)nc4n3CC3CC3)n(C)c12 [Example 305, N-((R)-1-(2-(5-((1S,4R,5R)-4-amino-2-azabicyclo[3.2.1]octane-2-carbonyl)-7-methoxy-1-methyl-1H-benzo[d]imidazol-2-yl)-1-(cyclopropylmethyl)-1H-pyrrolo[2,3-b]pyridin-6-yl)ethyl)-2-(difluoromethyl)nicotinamide]
4 | 92.8 | COc1cc(C(=O)N2C[C@H](N)[C@@H]3CC[C@H]2C3)cc2nc(-c3cc4ccc([C@@H](C)NC(=O)c5cccnc5C(F)(F)F)nc4n3CC3CC3)n(C)c12 [Example 306, N-((R)-1-(2-(5-((1S,4R,5R)-4-amino-2-azabicyclo[3.2.1]octane-2-carbonyl)-7-methoxy-1-methyl-1H-benzo[d]imidazol-2-yl)-1-(cyclopropylmethyl)-1H-pyrrolo[2,3-b]pyridin-6-yl)ethyl)-2-(trifluoromethyl)nicotinamide]
5 | 382 | COc1cc(C(=O)N2C[C@H](N)[C@@H]3CC[C@H]2C3)cc2nc(-c3cc4ccc([C@@H](C)NC(=O)c5cccc(C(F)F)n5)nc4n3CC3CC3)n(C)c12 [Example 307, N-((R)-1-(2-(5-((1S,4R,5R)-4-amino-2-azabicyclo[3.2.1]octane-2-carbonyl)-7-methoxy-1-methyl-1H-benzo[d]imidazol-2-yl)-1-(cyclopropylmethyl)-1H-pyrrolo[2,3-b]pyridin-6-yl)ethyl)-6-(difluoromethyl) picolinamide]
6 | 66.2 | COc1cc(C(=O)N2C[C@H](N)[C@@H]3CC[C@H]2C3)cc2nc(-c3cc4ccc([C@@H](C)NC(=O)c5ccc(C#CC(C)(C)S(C)(=O)=O)nc5)nc4n3CC3CC3)n(C)c12 [Example 308, N-((R)-1-(2-(5-((1S,4R,5R)-4-amino-2-azabicyclo[3.2.1]octane-2-carbonyl)-7-methoxy-1-methyl-1H-benzo[d]imidazol-2-yl)-1-(cyclopropylmethyl)-1H-pyrrolo[2,3-b]pyridin-6-yl)ethyl)-6-(3-methyl-3-(methylsulfonyl)but-1-yn-1-yl)nicotinamide]
7 | 111 | COc1cc(C(=O)N2C[C@H](N)[C@@H]3CC[C@H]2C3)cc2nc(-c3cc4ccc([C@@H](C)NC(=O)c5ccc(C(F)F)nc5)nc4n3CC3CC3)n(C3CC3)c12 [Example 309, N-((R)-1-(2-(5-((1S,4R,5R)-4-amino-2-azabicyclo[3.2.1]octane-2-carbonyl)-1-cyclopropyl-7-methoxy-1H-benzo[d]imidazol-2-yl)-1-(cyclopropylmethyl)-1H-pyrrolo[2,3-b]pyridin-6-yl)ethyl)-6-(difluoromethyl)nicotinamide]
8 | 89.7 | C[C@@H](NC(=O)c1ccc(C(F)F)nc1)c1ccc2cc(-c3nc4cc(C(=O)N5C[C@H](N)[C@@H]6CC[C@H]5C6)cc(F)c4n3C3CC3)n(CC3CC3)c2n1 [Example 310, N-((R)-1-(2-(5-((1S,4R,5R)-4-amino-2-azabicyclo[3.2.1]octane-2-carbonyl)-1-cyclopropyl-7-fluoro-1H-benzo[d]imidazol-2-yl)-1-(cyclopropylmethyl)-1H-pyrrolo[2,3-b]pyridin-6-yl)ethyl)-6-(difluoromethyl)nicotinamide]
9 | 67.6 | COc1cc(C(=O)N2C[C@H](N)[C@@H]3CC[C@H]2C3)cc2nc(-c3cc4ccc([C@@H](C)NC(=O)[C@@H]5CC5(F)F)nc4n3CC3CC3)n(C)c12 [Example 311, (S)-N-((R)-1-(2-(5-((1S,4R,5R)-4-amino-2-azabicyclo[3.2.1]octane-2-carbonyl)-7-methoxy-1-methyl-1H-benzo[d]imidazol-2-yl)-1-(cyclopropylmethyl)-1H-pyrrolo[2,3-b]pyridin-6-yl)ethyl)-2,2-difluorocyclopropane-1-carboxamide]
10 | 55.9 | COc1cc(C(=O)N2C[C@H](N)[C@@H]3CC[C@H]2C3)cc2nc(-c3cc4ccc([C@@H](C)NC(=O)[C@H]5CC5(F)F)nc4n3CC3CC3)n(C)c12 [Example 312, (R)-N-((R)-1-(2-(5-((1S,4R,5R)-4-amino-2-azabicyclo[3.2.1]octane-2-carbonyl)-7-methoxy-1-methyl-1H-benzo[d]imidazol-2-yl)-1-(cyclopropylmethyl)-1H-pyrrolo[2,3-b]pyridin-6-yl)ethyl)-2,2-difluorocyclopropane-1-carboxamide]
11 | 113 | COc1cc(C(=O)N2C[C@H](N)[C@@H]3CC[C@H]2C3)cc2nc(-c3cc4ccc([C@@H](C)NC(=O)c5ccc(C(F)(F)F)nc5)nc4n3CC3CC3)n(C)c12 [Example 313, N-((R)-1-(2-(5-((1S,4R,5R)-4-amino-2-azabicyclo[3.2.1]octane-2-carbonyl)-7-methoxy-1-methyl-1H-benzo[d]imidazol-2-yl)-1-(cyclopropylmethyl)-1H-pyrrolo[2,3-b]pyridin-6-yl)ethyl)-6-(trifluoromethyl)nicotinamide]
12 | 140 | COc1cc(C(=O)N2C[C@H](N)[C@@H]3CC[C@H]2C3)cc2nc(-c3cc4ccc([C@@H](C)NC(=O)c5cnc(C(F)(F)F)nc5)nc4n3CC3CC3)n(C)c12 [Example 314, N-((R)-1-(2-(5-((1S,4R,5R)-4-amino-2-azabicyclo[3.2.1]octane-2-carbonyl)-7-methoxy-1-methyl-1H-benzo[d]imidazol-2-yl)-1-(cyclopropylmethyl)-1H-pyrrolo[2,3-b]pyridin-6-yl)ethyl)-2-(trifluoromethyl)pyrimidine-5-carboxamide]
13 | 81.3 | COc1cc(C(=O)N2C[C@H](N)[C@@H]3CC[C@H]2C3)cc2nc(-c3cc4ccc([C@@H](C)NC(=O)c5cnc(C(F)F)nc5)nc4n3CC3CC3)n(C)c12 [Example 315, N-((R)-1-(2-(5-((1S,4R,5R)-4-amino-2-azabicyclo[3.2.1]octane-2-carbonyl)-7-methoxy-1-methyl-1H-benzo[d]imidazol-2-yl)-1-(cyclopropylmethyl)-1H-pyrrolo[2,3-b]pyridin-6-yl)ethyl)-2-(difluoromethyl)pyrimidine-5-carboxamide]
14 | 570 | COc1cc(C(=O)N2C[C@H](N)[C@@H]3CC[C@H]2C3)cc2nc(-c3cc4ccc([C@@H](C)NC(=O)c5ccnc(C(F)(F)F)n5)nc4n3CC3CC3)n(C)c12 [Example 316, N-((R)-1-(2-(5-((1S,4R,5R)-4-amino-2-azabicyclo[3.2.1]octane-2-carbonyl)-7-methoxy-1-methyl-1H-benzo[d]imidazol-2-yl)-1-(cyclopropylmethyl)-1H-pyrrolo[2,3-b]pyridin-6-yl)ethyl)-2-(trifluoromethyl)pyrimidine-4-carboxamide]
15 | 124 | COc1cc(C(=O)N2C[C@H](N)[C@@H]3CC[C@H]2C3)cc2nc(-c3cc4ccc([C@@H](C)NC(=O)C56CC(F)(C5)C6)nc4n3CC3CC3)n(C3CC3)c12 [Example 317, N-((R)-1-(2-(5-((1S,4R,5R)-4-amino-2-azabicyclo[3.2.1]octane-2-carbonyl)-1-cyclopropyl-7-methoxy-1H-benzo[d]imidazol-2-yl)-1-(cyclopropylmethyl)-1H-pyrrolo[2,3-b]pyridin-6-yl)ethyl)-3-fluorobicyclo[1.1.1]pentane-1-carboxamide]
16 | 252 | COc1cc(C(=O)N2C[C@H](N)[C@@H]3CC[C@H]2C3)cc2nc(-c3cc4ccc([C@@H](C)NC(=O)c5cnc(C(F)(F)F)cn5)nc4n3CC3CC3)n(C)c12 [Example 318, N-((R)-1-(2-(5-((1S,4R,5R)-4-amino-2-azabicyclo[3.2.1]octane-2-carbonyl)-7-methoxy-1-methyl-1H-benzo[d]imidazol-2-yl)-1-(cyclopropylmethyl)-1H-pyrrolo[2,3-b]pyridin-6-yl)ethyl)-5-(trifluoromethyl)pyrazine-2-carboxamide]
17 | 58 | COc1cc(C(=O)N2C[C@H](N)[C@@H]3CC[C@H]2C3)cc2nc(-c3cc4ccc([C@@H](C)NC(=O)c5cnn(C6CC6)c5)nc4n3CC3CC3)n(C)c12 [Example 319, N-((R)-1-(2-(5-((1S,4R,5R)-4-amino-2-azabicyclo[3.2.1]octane-2-carbonyl)-7-methoxy-1-methyl-1H-benzo[d]imidazol-2-yl)-1-(cyclopropylmethyl)-1H-pyrrolo[2,3-b]pyridin-6-yl)ethyl)-1-cyclopropyl-1H-pyrazole-4-carboxamide]
18 | 82.6 | COc1cc(C(=O)N2C[C@H](N)[C@@H]3CC[C@H]2C3)cc2nc(-c3cc4ccc([C@@H](C)NC(=O)c5cnn(C(F)(F)F)c5)nc4n3CC3CC3)n(C)c12 [Example 320, N-((R)-1-(2-(5-((1S,4R,5R)-4-amino-2-azabicyclo[3.2.1]octane-2-carbonyl)-7-methoxy-1-methyl-1H-benzo[d]imidazol-2-yl)-1-(cyclopropylmethyl)-1H-pyrrolo[2,3-b]pyridin-6-yl)ethyl)-1-(trifluoromethyl)-1H-pyrazole-4-carboxamide]
